Experimental data as given in the supplement of paper PMC10307832.

Experiments:
Test in all cases: relative viability (nuclei count vs DMSO), 5 days (fraction); higher = more cells survive
[1] = compound: C1CN(CCC1C(C2=CC3=C(C=C2)OCO3)(C4=CC5=C(C=C4)OCO5)O)C(=O)OC6=CC=C(C=C6)[N+](=O)[O-] [JZL-184] + C[C@@H](Oc1cc(-c2cnn(C3CCNCC3)c2)cnc1N)c1c(Cl)ccc(F)c1Cl [Crizotinib] (partner 1 µM)
Summary of the method: (§1)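 Relative viability was taken as the ratio of nuclei in treated wells to nuclei in vehicle wells. Lung cancer cell lines in 1536-well plates received compounds by pin tool one day after seeding, either one drug alone or a fixed anchor-drug dose plus five library-drug doses (not always all listed) in √10 steps. Nuclei were counted on 4× images after 5 days of treatment, and values are medians of duplicate plates.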

[2] = compound: C1CN(CCC1C(C2=CC3=C(C=C2)OCO3)(C4=CC5=C(C=C4)OCO5)O)C(=O)OC6=CC=C(C=C6)[N+](=O)[O-] [JZL-184] + N=C(N)NC(=N)NCCc1ccccc1 [Phenformin] (partner 250 µM)
Summary of the method: as §1

[3] = compound: C1CN(CCC1C(C2=CC3=C(C=C2)OCO3)(C4=CC5=C(C=C4)OCO5)O)C(=O)OC6=CC=C(C=C6)[N+](=O)[O-] [JZL-184] + C[C@]1(O)C[C@@H](c2nc(-c3ccc4ccc(-c5ccccc5)nc4c3)c3c(N)nccn32)C1 [Linsitinib] (partner 1 µM)
Summary of the method: as §1

[4] = compound: C1CN(CCC1C(C2=CC3=C(C=C2)OCO3)(C4=CC5=C(C=C4)OCO5)O)C(=O)OC6=CC=C(C=C6)[N+](=O)[O-] [JZL-184] + COc1cc2c(Oc3ccc(NC(=O)C4(C(=O)Nc5ccc(F)cc5)CC4)cc3F)ccnc2cc1OCCCN1CCOCC1 [Foretinib] (partner 0.25 µM)
Summary of the method: as §1

[5] = compound: C1CN(CCC1C(C2=CC3=C(C=C2)OCO3)(C4=CC5=C(C=C4)OCO5)O)C(=O)OC6=CC=C(C=C6)[N+](=O)[O-] [JZL-184]
Summary of the method: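 Following overnight incubation at 37 °C, lung cancer cell lines in 1536-well plates were pinned with five library-drug doses (not always all listed) in √10 steps on vehicle-anchored plates. The cells then spent 5 days without medium change before a combined fix, permeabilisation and Hoechst stain, 4× imaging and MetaXpress nuclear counts. Viability is the treated-to-vehicle ratio of nuclei, taken as the median across plates. Only plates with control CV below 25% and at least one doubling passed.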

| Cell Line | relative viability ([1]; first compound 0.04 µM) | relative viability ([1]; first compound 0.4 µM) | relative viability ([1]; first compound 1.265 µM) | relative viability ([1]; first compound 4 µM) | relative viability ([2]; first compound 0.04 µM) | relative viability ([2]; first compound 0.4 µM) | relative viability ([2]; first compound 1.265 µM) | relative viability ([2]; first compound 4 µM) | relative viability ([3]; first compound 0.04 µM) | relative viability ([3]; first compound 0.4 µM) | relative viability ([3]; first compound 1.265 µM) | relative viability ([3]; first compound 4 µM) | relative viability ([4]; first compound 0.04 µM) | relative viability ([4]; first compound 0.4 µM) | relative viability ([4]; first compound 1.265 µM) | relative viability ([4]; first compound 4 µM) | relative viability ([5]; 0.04 µM) | relative viability ([5]; 0.4 µM) | relative viability ([5]; 1.265 µM) | relative viability ([5]; 4 µM) |
| --- | --- | --- | --- | --- | --- | --- | --- | --- | --- | --- | --- | --- | --- | --- | --- | --- | --- | --- | --- | --- |
| NCI-H647 | 1.36 | 0.956 | 1 | 1.02 | 0.532 | 0.527 | 0.595 | 0.546 | 1.18 | 1.06 | 1.19 | 1.26 | 1.19 | 1.2 | 1.27 | 1.24 | 1.04 | 0.945 | 1.06 | 0.887 |
| NCI-H2009 | 1.15 | 1.06 | 1.02 | 1.01 | 0.518 | 0.473 | 0.51 | 0.461 | 1.18 | 1.13 | 1.2 | 1.19 | 1.17 | 0.809 | 1.28 | 1.21 | 1.12 | 0.942 | 1.02 | 1 |
| EPLC-272H | 1.03 | 0.814 | 1.93 | 1.03 | 0.303 | 0.293 | 0.351 | 0.34 | 1.19 | 1.11 | 1.35 | 1.14 | 0.773 | 0.668 | 0.907 | 0.712 | 1 | 0.914 | 1.15 | 0.937 |
| NCI-H520 | 0.813 | 0.707 | 0.907 | 0.665 | 0.533 | 0.48 | 0.739 | 0.485 | 1.15 | 0.929 | 0.926 | 0.897 | 0.893 | 0.784 | 0.831 | 0.771 | 0.793 | 0.924 | 1.07 | 0.93 |
| NCI-H2405 | 0.87 | 0.857 | 0.968 | 0.811 | 0.336 | 0.398 | 0.419 | 0.392 | 0.806 | 0.895 | 1.09 | 0.986 | 1.08 | 1.06 | 1.13 | 1 | 1 | 0.982 | 1.11 | 1 |
| NCI-H2085 | 0.969 | 0.806 | 0.808 | 0.844 | 0.433 | 0.682 | 0.843 | 0.737 | 0.852 | 0.862 | 1.18 | 0.866 | 0.954 | 0.827 | 1.12 | 0.96 | 0.719 | 0.989 | 1.07 | 0.98 |
| NCI-H322M | 0.965 | 0.971 | 0.886 | 0.825 | 0.844 | 0.718 | 0.818 | 0.662 | 0.823 | 0.938 | 0.984 | 0.907 | 1.12 | 0.932 | 1.03 | 0.791 | 0.951 | 0.926 | 0.982 | 0.774 |
| NCI-H1944 | 1.27 | 1.04 | 1.12 | 1.04 | 0.194 | 0.192 | 0.198 | 0.199 | 1.18 | 1.2 | 1.28 | 1.16 | 0.893 | 0.906 | 0.938 | 0.886 | 0.954 | 0.921 | 1.03 | 1.01 |
| LC-2-ad | 0.695 | 0.454 | 0.481 | 0.42 | 0.639 | 0.549 | 0.67 | 0.538 | 0.857 | 0.698 | 0.839 | 0.829 | 1.13 | 0.847 | 0.886 | 0.955 | 1.18 | 0.96 | 1.13 | 0.982 |
| NCI-H358 | 0.748 | 0.438 | 0.595 | 0.49 | 0.422 | 0.32 | 0.304 | 0.328 | 0.889 | 0.738 | 0.848 | 0.708 | 0.758 | 0.722 | 0.72 | 0.649 | 1 | 0.824 | 0.994 | 0.916 |
| NCI-H2170 | 1.38 | 1.17 | 1.27 | 1.17 | 0.435 | 0.407 | 0.419 | 0.419 | – | – | – | – | 1.05 | 0.941 | 0.977 | 0.966 | 1.1 | 0.948 | 1.02 | 0.928 |
| NCI-H2342 | – | – | – | – | 0.598 | 0.534 | 0.635 | 0.697 | – | – | – | – | 1.04 | 1.11 | 1.26 | 1.12 | 0.851 | 0.878 | 1.03 | 1.02 |
| SW 900 | – | – | – | – | 0.595 | 0.506 | 0.555 | 0.748 | – | – | – | – | 1.1 | 0.858 | 0.824 | 0.799 | 1.08 | 0.698 | 0.958 | 0.882 |
| A-427 | 1.03 | 0.907 | 0.914 | 0.77 | 0.308 | 0.327 | 0.441 | 0.306 | 1.15 | 1.17 | 1.18 | 1.1 | 1.06 | 1.03 | 1.33 | 0.972 | 1.09 | 0.982 | 1.12 | 0.948 |
| NCI-H1666 | 1.17 | 0.983 | 0.872 | 0.992 | 0.614 | 0.585 | 0.538 | 0.534 | 0.836 | 0.921 | 0.917 | 0.881 | 1.07 | 0.895 | 0.942 | 1 | 1.01 | 1.01 | 0.967 | 1.04 |
| LOU-NH91 | 0.757 | 0.738 | 0.771 | 0.769 | 0.795 | 0.626 | 0.774 | 0.708 | 1 | 0.924 | 1.02 | 0.968 | 1.02 | 0.9 | 1.03 | 0.939 | 1.02 | 0.879 | 0.984 | 0.945 |
| ABC-1 | 1.35 | 0.925 | 1.33 | 1.21 | 0.225 | 0.224 | 0.301 | 0.247 | 0.988 | 0.821 | 0.812 | 0.756 | 1.23 | 0.986 | 1.12 | 1.09 | 0.868 | 0.901 | 1.09 | 1.15 |
| NCI-H1651 | 0.896 | 0.839 | 0.895 | 0.87 | 0.393 | 0.3 | 0.337 | 0.353 | 0.988 | 0.927 | 0.933 | 0.816 | 0.798 | 0.786 | 0.725 | 0.788 | 1.08 | 0.907 | 1 | 0.967 |
| 201T | 1.06 | 1.03 | 1.01 | 1.01 | 0.451 | 0.44 | 0.465 | 0.45 | 1.03 | 1.01 | 1.05 | 1.02 | 1.15 | 1.09 | 1.15 | 1.11 | 0.997 | 0.992 | 1.01 | 0.953 |
| NCI-H3122 | 0.27 | 0.237 | 0.282 | 0.323 | 0.38 | 0.387 | 0.376 | 0.39 | 1.03 | 0.949 | 1.03 | 0.971 | 1.03 | 0.954 | 0.944 | 0.983 | 1.01 | 0.955 | 1.01 | 0.98 |
| A549 | 0.609 | 0.765 | 0.68 | 0.699 | 0.195 | 0.167 | 0.164 | 0.112 | 0.559 | 0.457 | 0.519 | 0.633 | 1.23 | 0.942 | 1.06 | 0.976 | 1.1 | 0.928 | 1.01 | 0.957 |
| HCC-44 | 0.815 | 0.78 | 0.815 | 0.783 | 0.231 | 0.104 | 0.245 | 0.185 | 0.619 | 0.631 | 0.728 | 0.636 | – | – | – | – | 1.05 | 0.923 | 1.06 | 0.983 |
| ChaGo-K-1 | 1.31 | 1.08 | 1.08 | 1.06 | 0.616 | 0.449 | 0.467 | 0.44 | – | – | – | – | 0.981 | 0.872 | 0.96 | 0.911 | 1.12 | 0.934 | 1.03 | 0.957 |
| NCI-H1703 | 0.865 | 0.554 | 0.726 | 0.508 | – | – | – | – | 0.893 | 0.765 | 0.738 | 0.305 | 0.356 | 0.317 | 0.402 | 0.295 | 1.2 | 0.997 | 0.996 | 0.768 |
| NCI-H1793 | – | – | – | – | 0.162 | 0.368 | 0.44 | 0.456 | 0.849 | 0.82 | 0.853 | 0.707 | 0.63 | 0.84 | 0.865 | 0.583 | 0.771 | 0.735 | 1.1 | 0.845 |
| NCI-H1650 | 1.28 | 0.995 | 1.01 | 0.893 | 0.427 | 0.411 | 0.524 | 0.357 | – | – | – | – | 1.22 | 1.03 | 1.35 | 0.898 | 1.07 | 0.895 | 1.16 | 0.915 |
| NCI-H1395 | – | – | – | – | 0.392 | 0.421 | 0.491 | 0.413 | 1.12 | 1.4 | 1.19 | 0.99 | 0.918 | 0.972 | 0.965 | 0.856 | 0.862 | 0.84 | 1.03 | 0.816 |
| NCI-H1792 | 1.04 | 0.713 | 1 | 0.97 | 0.288 | 0.147 | 0.62 | 0.281 | 0.573 | 0.462 | 0.653 | 0.51 | – | – | – | – | 1.03 | 0.836 | 0.883 | 1.18 |
| IA-LM | 0.988 | 0.467 | 0.74 | 0.9 | – | – | – | – | 1.06 | 0.529 | 0.607 | 0.554 | 1.47 | 1.08 | 1.22 | 1.11 | 1.31 | 0.879 | 1.03 | 1 |
